Results as given in patent US12122763B2, “Substituted piperidines for androgen receptor degradation” (UBIX THERAPEUTICS, INC., priority 2020, dated 2024).

Target: T1, Androgen Receptor (AR) protein (Homo sapiens, UniProt P10275, T878A)
T1 construct: endogenous in cells; host or cells: LNCaP
Assay: Androgen Receptor (AR) protein degradation assay in LNCaP cells, western blotting
Format: cell-based
Conditions: 20 h; for inhibition at 0.01 µM: 0.01 μM compound; for inhibition at 0.1 µM: 0.1 μM compound; for inhibition at 1 µM: 1 μM compound; for inhibition at 10 µM: 10 μM compound
Method in brief: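 LNCaP prostate cancer cells were cultured 3 days, then treated with compound for 20 h. Lysates in 1% SDS buffer were normalised by BCA, and 8 μg protein was run on 4–12% Bis-Tris gels. AR was immunoblotted with chemiluminescence, using GAPDH/β-actin as loading controls.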

T1 sequence (P10275 whole entry T878A): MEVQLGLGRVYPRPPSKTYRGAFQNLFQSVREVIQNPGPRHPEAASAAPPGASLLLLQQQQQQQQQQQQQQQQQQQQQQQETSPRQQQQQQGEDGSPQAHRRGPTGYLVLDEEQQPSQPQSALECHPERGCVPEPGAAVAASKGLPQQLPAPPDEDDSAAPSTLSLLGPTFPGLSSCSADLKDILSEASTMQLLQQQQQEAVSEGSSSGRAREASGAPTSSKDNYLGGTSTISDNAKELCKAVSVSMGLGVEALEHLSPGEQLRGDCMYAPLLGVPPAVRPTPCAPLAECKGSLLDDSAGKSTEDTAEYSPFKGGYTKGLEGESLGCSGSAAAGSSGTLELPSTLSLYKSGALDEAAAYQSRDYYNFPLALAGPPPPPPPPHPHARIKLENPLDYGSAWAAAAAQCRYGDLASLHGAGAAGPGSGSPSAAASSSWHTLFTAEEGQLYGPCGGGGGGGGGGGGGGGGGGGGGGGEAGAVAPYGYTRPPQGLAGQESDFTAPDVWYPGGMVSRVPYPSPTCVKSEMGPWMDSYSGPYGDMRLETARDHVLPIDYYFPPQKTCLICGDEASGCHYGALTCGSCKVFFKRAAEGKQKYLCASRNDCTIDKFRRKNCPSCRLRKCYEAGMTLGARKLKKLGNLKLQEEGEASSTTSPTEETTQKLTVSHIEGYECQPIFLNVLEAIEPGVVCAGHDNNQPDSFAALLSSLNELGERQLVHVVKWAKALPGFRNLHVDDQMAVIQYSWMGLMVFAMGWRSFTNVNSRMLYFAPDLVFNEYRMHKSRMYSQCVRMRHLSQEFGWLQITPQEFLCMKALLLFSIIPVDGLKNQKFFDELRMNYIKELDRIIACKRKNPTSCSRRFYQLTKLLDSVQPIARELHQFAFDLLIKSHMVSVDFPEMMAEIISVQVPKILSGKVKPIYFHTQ
T1 sequence (Q96SW2 whole entry partner): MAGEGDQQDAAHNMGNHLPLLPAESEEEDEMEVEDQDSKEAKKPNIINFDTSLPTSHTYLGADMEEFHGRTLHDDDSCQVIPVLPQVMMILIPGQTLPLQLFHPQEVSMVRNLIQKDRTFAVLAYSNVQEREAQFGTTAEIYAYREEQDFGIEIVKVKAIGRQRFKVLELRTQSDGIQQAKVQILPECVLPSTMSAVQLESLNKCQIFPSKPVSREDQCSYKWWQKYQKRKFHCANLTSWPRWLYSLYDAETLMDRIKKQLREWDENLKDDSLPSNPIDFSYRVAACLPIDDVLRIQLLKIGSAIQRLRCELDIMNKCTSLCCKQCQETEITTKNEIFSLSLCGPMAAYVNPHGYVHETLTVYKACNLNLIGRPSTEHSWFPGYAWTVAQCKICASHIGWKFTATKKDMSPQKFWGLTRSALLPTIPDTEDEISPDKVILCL

Row | SMILES | inhibition at 0.01 µM [%] | inhibition at 0.1 µM [%] | inhibition at 1 µM [%] | inhibition at 10 µM [%]
1 | COc1ccc(C(=O)N2CC3(CCN(CC4CCN(c5ccc(NC(=O)C6CCN(c7ccc(C#N)c(C(F)(F)F)c7)CC6)nc5)CC4)CC3)C2)cc1N1CCC(=O)NC1=O [Example 65, 1-(4-cyano-3-(trifluoromethyl)phenyl)-N-(5-(4-((2-(3-(2,4-dioxotetrahydropyrimidin-1(2H)-yl)-4-methoxybenzoyl)-2,7-diazaspiro[3.5]nonan-7-yl)methyl)piperidin-1-yl)pyridin-2-yl)piperidine-4-carboxamide] | 55 | 80 | 82 | 63
2 | N#Cc1ccc(N2CCC(C(=O)Nc3ccc(N4CCC(CN5CC6(C5)CN(c5ccc7c(c5)C(=O)N(C5CCC(=O)NC5=O)C7=O)C6)CC4)cn3)CC2)cc1C(F)(F)F (stereo not shown) [Example 66, 1-(4-cyano-3-(trifluoromethyl)phenyl)-N-(5-(4-((6-(2-(2,6-dioxopiperidin-3-yl)-1,3-dioxoisoindolin-5-yl)-2,6-diazaspiro[3.3]heptan-2-yl)methyl)piperidin-1-yl)pyridin-2-yl)piperidine-4-carboxamide] | 75.5 | 95.5 | 97 | 94
3 | N#Cc1ccc(N2CCC(C(=O)Nc3ccc(N4CCC(CN5CC6(C5)CN(c5ccc7c(c5)C(=O)N(C5CCC(=O)NC5=O)C7=O)C6)CC4)cn3)CC2)cc1Cl (stereo not shown) [Example 67, 1-(3-chloro-4-cyanophenyl)-N-(5-(4-((6-(2-(2,6-dioxopiperidin-3-yl)-1,3-dioxoisoindolin-5-yl)-2,6-diazaspiro[3.3]heptan-2-yl)methyl)piperidin-1-yl)pyridin-2-yl)piperidine-4-carboxamide] | 46 | 90 | 88 | 86
4 | N#Cc1ccc(N2CCC(C(=O)Nc3ccc(N4CCC(CN5CCC6(CC5)CCN(c5ccc7c(c5)C(=O)N(C5CCC(=O)NC5=O)C7=O)CC6)CC4)cn3)CC2)cc1C(F)(F)F (stereo not shown) [Example 68, 1-(4-cyano-3-(trifluoromethyl)phenyl)-N-(5-(4-((9-(2-(2,6-dioxopiperidin-3-yl)-1,3-dioxoisoindolin-5-yl)-3,9-diazaspiro[5.5]undecan-3-yl)methyl)piperidin-1-yl)pyridin-2-yl)piperidine-4-carboxamide] | 66 | 91 | 90 | 85
5 | N#Cc1ccc(N2CCC(C(=O)Nc3ccc(N4CCC(CN5CCC6(CC5)CCN(c5ccc7c(c5)C(=O)N(C5CCC(=O)NC5=O)C7=O)CC6)CC4)cn3)CC2)cc1Cl (stereo not shown) [Example 69, 1-(3-chloro-4-cyanophenyl)-N-(5-(4-((9-(2-(2,6-dioxopiperidin-3-yl)-1,3-dioxoisoindolin-5-yl)-3,9-diazaspiro[5.5]undecan-3-yl)methyl)piperidin-1-yl)pyridin-2-yl)piperidine-4-carboxamide] | 40 | 83 | 85 | 82
6 | N#Cc1ccc(N2CCC(C(=O)Nc3ccc(N4CCC(CN5CCN(C6CCN(c7ccc8c(c7)C(=O)N(C7CCC(=O)NC7=O)C8=O)CC6)CC5)CC4)cn3)CC2)cc1C(F)(F)F (stereo not shown) [Example 70, 1-(4-cyano-3-(trifluoromethyl)phenyl)-N-(5-(4-((4-(1-(2-(2,6-dioxopiperidin-3-yl)-1,3-dioxoisoindolin-5-yl)piperidin-4-yl)piperazin-1-yl)methyl)piperidin-1-yl)pyridin-2-yl)piperidine-4-carboxamide] | 85 | 99 | 99 | 97
7 | N#Cc1ccc(N2CCC(C(=O)Nc3ccc(N4CCC(CN5CCN(C6CCN(c7ccc8c(c7)C(=O)N(C7CCC(=O)NC7=O)C8=O)CC6)CC5)CC4)cn3)CC2)cc1Cl (stereo not shown) [Example 71, 1-(3-chloro-4-cyanophenyl)-N-(5-(4-((4-(1-(2-(2,6-dioxopiperidin-3-yl)-1,3-dioxoisoindolin-5-yl)piperidin-4-yl)piperazin-1-yl)methyl)piperidin-1-yl)pyridin-2-yl)piperidine-4-carboxamide] | 75 | 97 | 98 | 98
8 | N#Cc1ccc(N2CCC(F)(C(=O)Nc3ccc(N4CCC(CN5CCN(C6CCN(c7ccc8c(c7)C(=O)N(C7CCC(=O)NC7=O)C8=O)CC6)CC5)CC4)cn3)CC2)cc1C(F)(F)F (stereo not shown) [Example 72, 1-(4-cyano-3-(trifluoromethyl)phenyl)-N-(5-(4-((4-(1-(2-(2,6-dioxopiperidin-3-yl)-1,3-dioxoisoindolin-5-yl)piperidin-4-yl)piperazin-1-yl)methyl)piperidin-1-yl)pyridin-2-yl)-4-fluoropiperidine-4-carboxamide] | 59 | 94 | 97 | –
9 | N#Cc1ncc(N2CCC(C(=O)Nc3ccc(N4CCC(CN5CCN(C6CCN(c7ccc8c(c7)C(=O)N(C7CCC(=O)NC7=O)C8=O)CC6)CC5)CC4)cn3)CC2)cc1C(F)(F)F (stereo not shown) [Example 73, 1-(6-cyano-5-(trifluoromethyl)pyridin-3-yl)-N-(5-(4-((4-(1-(2-(2,6-dioxopiperidin-3-yl)-1,3-dioxoisoindolin-5-yl)piperidin-4-yl)piperazin-1-yl)methyl)piperidin-1-yl)pyridin-2-yl)piperidine-4-carboxamide] | 55 | 88 | 92 | –
10 | N#Cc1ncc(N2CCC(F)(C(=O)Nc3ccc(N4CCC(CN5CCN(C6CCN(c7ccc8c(c7)C(=O)N(C7CCC(=O)NC7=O)C8=O)CC6)CC5)CC4)cn3)CC2)cc1C(F)(F)F (stereo not shown) [Example 74, 1-(6-cyano-5-(trifluoromethyl)pyridin-3-yl)-N-(5-(4-((4-(1-(2-(2,6-dioxopiperidin-3-yl)-1,3-dioxoisoindolin-5-yl)piperidin-4-yl)piperazin-1-yl)methyl)piperidin-1-yl)pyridin-2-yl)-4-fluoropiperidine-4-carboxamide] | 20 | 66 | 83 | –
11 | N#Cc1ccc(N2CCC(C(=O)Nc3ccc(N4CCC(CN5CCN(C6CCN(c7ccc8c(n7)CN(C7CCC(=O)NC7=O)C8=O)CC6)CC5)CC4)cn3)CC2)cc1C(F)(F)F (stereo not shown) [Example 75, 1-(4-cyano-3-(trifluoromethyl)phenyl)-N-(5-(4-((4-(1-(6-(2,6-dioxopiperidin-3-yl)-5-oxo-6,7-dihydro-5H-pyrrolo[3,4-b]pyridin-2-yl)piperidin-4-yl)piperazin-1-yl)methyl)piperidin-1-yl)pyridin-2-yl)piperidine-4-carboxamide] | 82 | 97 | 90 | –
12 | N#Cc1ccc(N2CCC(C(=O)Nc3ccc(N4CCC(CN5CCN(C6CCN(c7cccc8c7C(=O)N(C7CCC(=O)NC7=O)C8=O)CC6)CC5)CC4)cn3)CC2)cc1C(F)(F)F (stereo not shown) [Example 76, 1-(4-cyano-3-(trifluoromethyl)phenyl)-N-(5-(4-((4-(1-(2-(2,6-dioxopiperidin-3-yl)-1,3-dioxoisoindolin-4-yl)piperidin-4-yl)piperazin-1-yl)methyl)piperidin-1-yl)pyridin-2-yl)piperidine-4-carboxamide] | 36 | 85 | 88 | –
13 | N#Cc1ccc(N2CCC(C(=O)Nc3ccc(N4CCC(CN5CC(N6CCN(c7ccc8c(c7)C(=O)N(C7CCC(=O)NC7=O)C8=O)CC6)C5)CC4)cn3)CC2)cc1C(F)(F)F (stereo not shown) [Example 77, 1-(4-cyano-3-(trifluoromethyl)phenyl)-N-(5-(4-((3-(4-(2-(2,6-dioxopiperidin-3-yl)-1,3-dioxoisoindolin-5-yl)piperazin-1-yl)azetidin-1-yl)methyl)piperidin-1-yl)pyridin-2-yl)piperidine-4-carboxamide] | 46 | 96 | 97 | –
14 | N#Cc1ccc(N2CCC(C(=O)Nc3ccc(N4CCC(CN5CC(N6CCN(c7ccc8c(n7)CN(C7CCC(=O)NC7=O)C8=O)CC6)C5)CC4)cn3)CC2)cc1C(F)(F)F (stereo not shown) [Example 78, 1-(4-cyano-3-(trifluoromethyl)phenyl)-N-(5-(4-((3-(4-(6-(2,6-dioxopiperidin-3-yl)-5-oxo-6,7-dihydro-5H-pyrrolo[3,4-b]pyridin-2-yl)piperazin-1-yl)azetidin-1-yl)methyl)piperidin-1-yl)pyridin-2-yl)piperidine-4-carboxamide] | 49 | 88 | 71 | –
15 | N#Cc1ccc(N2CCC(C(=O)Nc3ccc(N4CCC(CN5CC(CN6CCN(c7ccc8c(c7)C(=O)N(C7CCC(=O)NC7=O)C8=O)CC6)C5)CC4)cn3)CC2)cc1C(F)(F)F (stereo not shown) [Example 79, 1-(4-cyano-3-(trifluoromethyl)phenyl)-N-(5-(4-((3-((4-(2-(2,6-dioxopiperidin-3-yl)-1,3-dioxoisoindolin-5-yl)piperazin-1-yl)methyl)azetidin-1-yl)methyl)piperidin-1-yl)pyridin-2-yl)piperidine-4-carboxamide] | 31 | 94 | 95 | –
16 | N#Cc1ccc(N2CCC(C(=O)Nc3ccc(N4CCC(CN5CC(CN6CCN(c7ccc8c(n7)CN(C7CCC(=O)NC7=O)C8=O)CC6)C5)CC4)cn3)CC2)cc1C(F)(F)F (stereo not shown) [Example 80, 1-(4-cyano-3-(trifluoromethyl)phenyl)-N-(5-(4-((3-((4-(6-(2,6-dioxopiperidin-3-yl)-5-oxo-6,7-dihydro-5H-pyrrolo[3,4-b]pyridin-2-yl)piperazin-1-yl)methyl)azetidin-1-yl)methyl)piperidin-1-yl)pyridin-2-yl)piperidine-4-carboxamide] | 34 | 90 | 57 | –
